Results taken from US8278303B2, “Phosphine transition metal complex, process for producing same, and anticancer agent” (Nippon Chemical Industrial Co., Ltd., priority 2006, dated 2012).

Test system: Human acute myelocytic leukemia cells HL-60
Assay: Inhibitory activity on tumor cells, viable cell count by modified Mosmann (MTT) method
Assay type: cell-based
Details: HL-60 cells, 50,000 cells/well, 24 hours culture with compound, then MTT 3 hours; average of at least triplicate; read-out: IC50 (fifty percent inhibitory concentration)
Description: The cells were washed with PBS.
Formazan crystals formed by the enzyme activity of mitochondria in the cells were dissolved in 0.04 mol/HCl/isopropyl alcohol.

CP(c1nc2ccccc2nc1P(C)C(C)(C)C)C(C)(C)C.CP(c1nc2ccccc2nc1P(C)C(C)(C)C)C(C)(C)C.[Au+].[Cl-] (stereo not shown) [Example 1, bis(2,3-bis(t-butylmethylphosphino)quinoxaline)gold (I) chloride]
IC50: 517 nM
